Assay results taken from US20240158390A1, “OTHER HETEROAROMATIC COMPOUNDS HAVING ACTIVITY AGAINST RSV” (Janssen Sciences Ireland Unlimited Company, priority 2019, published 2024).

What was measured:
[1] = system: rgRSV224 virus; experiment: Antiviral activity: rgRSV224 (GFP) replication in HeLa cells; type: cell-based; conditions: human respiratory syncytial virus, 72 h, read-out: RSV HELA EC50 (μM)
Protocol: (§1) Black 384-well clear-bottom microtiter plates (Corning, Amsterdam, The Netherlands) were filled via acoustic drop ejection using the echo liquid handler (Labcyte, Sunnyvale, California). 200 nL of compound stock solutions (100% DMSO) were transferred to the assay plates. 9 serial 4-fold dilutions of compound were made, creating per quadrant the same compound concentration. The assay was initiated by adding 10 μL of culture medium to each well (RPMI medium without phenol red, 10% FBS-heat inactivated, 0.04% gentamycin (50 mg/mL). All addition steps are done by using a multidrop dispenser (Thermo Scientific, Erembodegem, Belgium). Next, rgRSV224 virus (MOI=1) diluted in culture medium was added to the plates. rgRSV224 virus is an engineered virus that includes an additional GFP gene (Hallak LK, Spillmann D, Collins PL, Peeples ME. Glycosaminoglycan sulfation requirements for respiratory syncytial virus infection; Journal of virology (2000), 74(22), 10508-13) and was in-licensed from the NIH (Bethesda, MD, USA). Finally, 20 μL of a HeLa cell suspension (3,000 cells/well) were plated. Medium, virus- and mock-infected controls were included in each test. The wells contain 0.05% DMSO per volume. Cells were incubated at 37° C. in a 5% CO2 atmosphere. Three days post-virus exposure, viral replication was quantified by measuring GFP expression in the cells by an in house developed MSM laser microscope (Tibotec, Beerse, Belgium). The EC50 was defined as the 50% inhibitory concentration for GFP expression. In parallel, compounds were incubated for three days in a set of white 384-well microtiter plates (Corning) and the cytotoxicity of compounds in HeLa cells was determined by measuring the ATP content of the cells using the ATPlite kit (Perkin Elmer, Zaventem, Belgium) according to the manufacturer's instructions. The CC50 was defined as the 50% concentration for cytotoxicity.

[2] = in vitro; type: cell-based; conditions: human
Protocol: as §1

Compound	EC50 [1] [µM]	CC50 at 3 days [2] [µM]
C[C@@H]1c2ccccc2CCN1C(=O)c1cc(C2CC2)c2nc(-c3ccc(N4CC[C@H](C(=O)O)C4)cc3F)oc2c1 [Compound 21, (3S)-1-(4-{4-Cyclopropyl-6-[(1R)-1-methyl-1,2,3,4-tetrahydroisoquinoline-2-carbonyl]-1,3-benzoxazol-2-yl}-3-fluorophenyl)pyrrolidine-3-carboxylic acid]	0.01	51.5
C[C@@H]1c2ccccc2CCN1C(=O)c1cc(C2CC2)c2nc(-c3ccc(N4CC[C@H](C(N)=O)C4)cc3F)oc2c1 [Compound 22, (3S)-1-(4-{4-Cyclopropyl-6-[(1R)-1-methyl-1,2,3,4-tetrahydroisoquinoline-2-carbonyl]-1,3-benzoxazol-2-yl}-3-fluorophenyl)pyrrolidine-3-carboxamide]	0.01	54.8
C[C@@H]1c2ccccc2CCN1C(=O)c1cc(C2CC2)c2nc(-c3ccc(NC(=O)N4CC[C@@H](O)C4)cc3F)oc2c1 [Compound 23, (R)-N-(4-(4-cyclopropyl-6-((R)-1-methyl-1,2,3,4-tetrahydroisoquinoline-2-carbonyl)benzo[d]oxazol-2-yl)-3-fluorophenyl)-3-hydroxypyrrolidine-1-carboxamide]	0.05	47.8
C[C@@H]1c2ccccc2CCN1C(=O)c1cc(C2CC2)c2nc(-c3ccc(NC(=O)N4CC[C@@H](O)C4)cc3F)sc2c1 [Compound 24, (R)-N-(4-(4-cyclopropyl-6-((R)-1-methyl-1,2,3,4-tetrahydroisoquinoline-2-carbonyl)benzo[d]thiazol-2-yl)-3-fluorophenyl)-3-hydroxypyrrolidine-1-carboxamide]	0.17	54
C[C@@H]1c2ccccc2CCN1C(=O)c1cc(-c2ccccc2)c2cn(-c3ccc(N4C[C@H](O)[C@@H](O)C4)cc3F)nc2c1 [Compound 25, (2-(4-((3S,4S)-3,4-dihydroxypyrrolidin-1-yl)-2-fluorophenyl)-4-phenyl-2H-indazol-6-yl)((R)-1-methyl-3,4-dihydroisoquinolin-2 (1H)-yl)methanone]	0.47	19.4
